From patent US20170246137A1, “SULFESTROL FOR TREATING CANCER” (CHAMAELEO PHARMA BVBA, priority 2012, published 2017)

Legend:
[1] = In vitro metabolism in human liver microsomes (STS and CYP); assay type: in vitro ADME; set-up: Clint: unit not given here; conditions: for Clint / Contribution to metabolism / Half-life: 5 μM
Description: In vitro metabolism pathways of DES, Mono-Sulfestrol and Di-Sulfestrol in human liver microsomes were investigated.
Special emphasis was put on desulfatation by steroid sulfatase (STS) and oxidation by cytochrome P (CYP) metabolism. Liver microsomes (Celsis in vitro Technologies) were used at a concentration of 0.5 mg/ml in a volume of 600 μl phosphate buffer pH 7.4. Estrone-3-sulfate was used as positive control.
5 μM of each compound (test and control compound) was added to the liver microsomes and the mixture was incubated at 37° C. for 5, 10, 20, 30, 50, 90 and 120 minutes. After incubation, aliquots of 45 μl were taken which were subsequently quenched with 150 μl ice cold methanol. Aliquots were incubated ≧1 h at −20° C. for protein precipitation. After precipitation, samples were centrifuged and remaining supernatant was used for analysis with LC-MS/MS. Half life of the compounds, speed of metabolism or intrinsic clearance (Clint), and contribution to metabolism of CYP and STS metabolism were calculated based on the data obtained at each time point.

[2] = tested on: MDA-MB-231 Dlux; experiment: Orthotopic spontaneous metastasis breast model, whole body bioluminescence; assay type: in vivo, female MF-1 nude mice; conditions: for total flux, whole body bioluminescence: mono-Sulfestrol 60 mg/kg, di-Sulfestrol 80 mg/kg orally once a day
Description: Female MF-1 nude mice (HsdOla:MF1-Foxn1nu, Harlan, UK) were divided into 3 groups of each 8 mice (n=8):
The mice were 5-6 weeks old at the start of the study and were maintained in sterile isolators within a barriered unit illuminated by fluorescent lights set to give a 12 hour light-dark cycle (on 07.00, off 19.00). The room was air-conditioned to maintain an air temperature range of 23±2° C. Sterile irradiated 2019 rodent diet (Harlan Teklad UK, product code Q219DJ1R2) and autoclaved water were offered ad libitum.
The MDA-MB-231 Dlux cells were maintained in vitro in RPMI containing 2 mM L-Glut and (Life Technologies, UK) and 10% (v/v) heat-inactivated foetal bovine serum (Sigma, Poole, UK) at 37° C. in 5% CO2 and humidified conditions. Cells were treated with Zeocin once a week at 0.4 mg/mL.
On the day of initiation cells were harvested from semi-confluent monolayers with 0.05% Trypsin-EDTA, washed twice in the culture medium and counted. Cells with viability of >90% were re-suspended, for in vivo administration, in 1:1 PBS:Matrigel at 2×10^6 cells/0.1 mL. Prior to injection, the cell suspension was homogenized and 0.1 mL of cell suspension was drawn into a 1 mL syringe. The cell suspension was then injected orthotopically into the lower left-side 2nd mammary fat pad of each mouse under anaesthesia (Medetomidine/Ketamine).
On day 7 after initiation and every six days thereafter, the mice were injected (s.c.) with 150 mg/kg D-Luciferin. 10 minutes following administration of D-Luciferin mice were anaesthetised and 15 minutes after administration they were placed into an imaging chamber (Spectrum CT) and imaged for luminescence (ventral view; whole body and shielding of the primary tumor). Images were captured and processed by Living Image 4.3.1 software (Caliper LS, US.).
On day 7 after initiation mice were assigned to groups such that there was a uniform mean bioluminescent signal between the groups.

[3] = + NADPH + 667-Coumate (STS inactive, CYP active)
[4] = nothing added (STS active, CYP inactive)

4-(4-(4-oxidophenyl)hex-3-en-3-yl)phenyl sulfate [Mono-Sulfestrol]
metabolism pathway in human liver microsomes (in words) [1]: metabolized by both STS and CYP enzymes | Clint [1, 3]: 51 | Contribution to metabolism [1, 3]: 44% | Half-life [1, 3]: 27 min | Clint [1, 4]: 22 | Contribution to metabolism [1, 4]: 19% | Half-life [1, 4]: 63 min | total flux, whole body bioluminescence ([2]; Day 7 (before start of treatment)): 1.72 10^9 photons/second | total flux, whole body bioluminescence ([2]; Day 13): 5.89 10^9 photons/second | total flux, whole body bioluminescence ([2]; Day 19): 9.22 10^9 photons/second | effect on tumor progression (in words) ([2]; oral, MDA-MB-231 Dlux in mice): tumor progression inhibiting effect
